# Data as given in patent EP0315782A2, “Method for the production of proteins” (priority 1987, dated 1989).
# Like-named read-outs stand apart in the source and are kept apart here.
# Tests used:
# Type in all cases: cell-based, chinesische Hamster
# [1] = test system: CHO-Zellen; test: t-PA production in transformed CHO cells, medium with 7.5% FKS, supernatant, direct chromogenic assay (DCA); conditions: for Stimulierung der t-PA-Produktion: after 24 h
# Description: (§1) Der Vektor für die t-PA-Produktion wurde in einem Subklon, CHO-K1-DUX B11, integriert (Urlaub et al., Proceedings of the National Academy of Science, USA, 77: 4216-4220, 1980). Diese Zell-Linie, eine Dihydrofolat Reduktase negative Mutante (DHFR-), ist für eine DHFR-abhängige Selektion der transfizierten Zellklone geeignet. Der Vektor für die humane c-DNA kann ein bekannter Plasmid-Vektor pBR-322 oder deren Abkömmling von Escherichia coli sein. Die Promotorregion für das in Frage kommende Gen und für das DHFR-Gen stammt aus SV 40 und die Terminationsregion für beide Gene von einem Hepatitis B-Oberflächenantigen. In den Beispielen wurden CHO-K1-DUX B11-Zellen, die durch die Plasmide pETPER oder pEPEFR transformiert sind, verwendet (siehe EP-A 0117059).
# (§2) Die Zellkulturen werden bei 37°C in einem Hereaus-Brutschrank inkubiert und mit einem Kohlendioxid-Luftgemisch von 7,5% CO₂ in einer relativen Luftfeuchtigkeit von 100% belüftet. Je nach Verfahrensansatz werden unterschiedliche Kulturgefäße benutzt: Spinnergefäße für 100-1000 ml Medium, Roux-Schalen (Nunc) 175 cm² (70-100 ml Medium), 75 cm² (30-50 ml Medium), 25 cm² (7-10 ml Medium) und Mehrfachkulturschalen von Costar mit 2 cm² für 1 ml Kulturen. Für die Stammhaltung werden die Zellen in einer Dichte von 0,2-0,3 x 10⁶ Zellen/ml eingesetzt und alle 2-3 Tage subkloniert.
# (§3) Die Protein-Produktion stimulierenden Substanzen können zu den verschiedenen Zeitpunkten jeweils in einer 1:100 Verdünnung zugegeben werden, d.h. sie wurden zuerst in Medium gelöst oder, wenn sie schwerlöslich sind, erst in Äthylalkohol gelöst und danach in Medium zugesetzt und dann das diese Substanz enthaltende Medium dem zellenthaltenden Medium im Verhältnis 1:100 v/v zugegeben.
# (§4) In den folgenden Beispielen wurden, um die Stimulierung der t-PA-Synthese hervorzurufen, Zellen einer exponentiell wachsenden Kultur entnommen und in Plastikröhrchen (Falcon) 10 Min. bei 1000 x g in einer Beckmann T 3-6 Zentrifuge abzentrifugiert. Nach Dekantieren des Überstandes wurde das Zellpellet mit frischem Medium resuspendiert.
# Für die Produktion von t-PA in serumhaltigem Medium wurde als frisches Medium F12/DMEM + 7,5% FKS + Gentamycin verwendet. Die resultierende Suspension kann in 2 cm² 24 Wells-Platten bei einer Zelldichte von 0,2-0,3 x 10⁶ Zellen/ml angesetzt werden.
# (§5) Aliquots von Zellüberständen und Zellextrakten wurden zu verschiedenen Zeitpunkten abgenommen bzw. hergestellt. Die Messung der Proben erfolgte entweder sofort oder nach Aufbewahrung bei -20°C mit folgenden Methoden:
# Von dem synthetischen Peptidsubstrat S-2288 (D-H-Ile-Pro-Arg-p-Nitroanilin) der Firma Kabi Diagnostica wird durch das t-PA p-Nitroanilin als Reaktionsprodukt gebildet. Die Aktivität von t-PA ist zur Bildung von p-Nitroanilin proportional, die bei […], 37°C, gemessen wird.
# Die spektrophotometrische Bestimmung der Enzymkinetik wurde mit einem ACP-5010-Analysengerät der Firma Eppendorf automatisch durchgeführt.
# Die Aktivität des Enzyms wurde anhand dieses vorgegebenen Standards berechnet. Eine t-PA-Standardreihe von 1-15 µg/ml wurde mit einem Laborstandard hergestellt, der zu 72% aus 1-kettigem Material besteht.
# Die Substratlösung (100 mM Tris/106 mM NaCl) wurde in einer Konzentration von 50 mM eingesetzt.
# [2] = test system: CHO-Zellen; test: t-PA production in transformed CHO cells, medium and determination method not stated; conditions: 10 mM; for activation at 10000 µM: CHO
# Description: as §1, §2, §3, §4
# Aliquots von Zellüberständen und Zellextrakten wurden zu verschiedenen Zeitpunkten abgenommen bzw. hergestellt. Die Messung der Proben erfolgte entweder sofort oder nach Aufbewahrung bei -20°C mit folgenden Methoden: […]
# [3] = test system: CHO-Zellen; test: t-PA production in transformed CHO cells, serum-free medium (DCA or determination method not given)
# Description: Diese Zell-Linie, eine Dihydrofolat Reduktase negative Mutante (DHFR-), ist für eine DHFR-abhängige Selektion der transfizierten Zellklone geeignet. […] Die Promotorregion für das in Frage kommende Gen und für das DHFR-Gen stammt aus SV 40 und die Terminationsregion für beide Gene von einem Hepatitis B-Oberflächenantigen.
# Im folgenden Beispiel wird ein nachseziertes DMEM/Ham's F 12 Medium (1:1) (Gibco) als serumfreies Medium verwendet. Als Zusatz wird fötales Kälberserum (FKS) in einer Konzentration von 7,5% oder 1-2% verwendet.
# as §2, §3, §4
# Für die Produktion von t-PA in serumfreiem Medium wurden die Zellen zuvor 3-4 Tage in einem Medium von 1-2% FKS adaptiert, wieder abzentrifugiert und das Zellpellet in serumfreiem Medium resuspendiert und anschließend in 2 cm² 24 Wells-Platten in einer Zelldichte von 0,4-0,5 x 10⁶ Zellen/ml überführt.
# as §5
# Die Aktivität des Enzyms wurde anhand dieses vorgegebenen Standards berechnet.
# [4] = Table 8, 7,5% FKS, bracketed value = concentration of the single sample
# [5] = Table 8, mean ± SE, n = 6-19, runs of 3 days, added day 0 to 2, 7,5% FKS, 1 ml supernatant vs control (0%)
# [6] = Table 8, single sample, 7,5% FKS, 1 ml supernatant vs control (0%)
# [7] = Table 3, mean ± SE, n = 3-24, production runs of 3 to 4 days, acids added day 0 to 3, 1 ml supernatant vs control (0%), 7,5% FKS
# [8] = Table 3, single sample, 1 ml supernatant vs control (0%), 7,5% FKS, its concentration, addition and sampling day in brackets in Tables 3/3A
# [9] = Table 3, stimulation of t-PA synthesis, medium with 7,5% FKS, bracketed value = concentration of the single (maximum) sample
# [10] = Table 4, Applikationstag 0, after 48 h growth, 7,5% FKS, 1 mM or 5 mM, 1 ml supernatant vs control (0%), mean ± SE
# [11] = Table 4, Applikationstag 1, after 48 h growth, 7,5% FKS, 1 mM or 5 mM, 1 ml supernatant vs control (0%), mean ± SE
# [12] = Table 10, 7,5% FKS, bracketed value = concentration of the single sample
# [13] = Table 10, mean ± SE, runs of 4 days, added day 1, sampled days 2-4, 7,5% FKS, 1 ml supernatant vs control (0%)
# [14] = Table 10, single sample (added day 1, sampled day 4), 7,5% FKS, 1 ml supernatant vs control (0%)
# [15] = Table 7, mean ± SE, n = 4-9, runs of 4 days, acids added day 0, 7,5% FKS, 1 ml supernatant vs control (0%)
# [16] = Table 7, single sample (added day 0, sampled day 2), 7,5% FKS, 1 ml supernatant vs control (0%)
structure (smiles),measurement,setting,value
N[C@@H](CCC(=O)N[C@@H](CS)C(=O)NCC(=O)O)C(=O)O [Glutathion],optimaler Dosisbereich,[1]; [4],1-10 µM (10µM)
same,% Steigerung der t-Pa-Synthese Durchschnitt,[1]; [5],"16,0 ± 2,0%"
same,% Steigerung der t-Pa-Synthese Maximum,[1]; [6],"30,6%"
same,effektiver Konzentrationsbereich,[1]; text b134,1 to 10 µM
CC(C)CC(=O)O [Isovaleriansäure],% Steigerung der t-PA-Synthese Durchschnitt,[1]; [7],"18,7 ± 2,4%"
same,% Steigerung der t-PA-Synthese Maximum,[1]; [8],"39,3%"
same,optimaler Dosisbereich,[1]; [9],1-20 mM ( 5 mM)
same,Steigerung der t-PA-Produktion,[1]; [10],"17,2 ± 1,0%"
same,Steigerung der t-PA-Produktion,[1]; [11],"19,4 ± 1,5%"
same,Stimulierung der t-PA-Produktion,"[1]; medium with 7,5% FKS (Abb. 7)","24,8 ± 0,5%"
same,Steigerung der t-PA-Produktion,"[1]; day 4, medium with 7,5% FKS (Abb. 7)","8,5%"
"CCCC(=O)OCC[N+](C)(C)C.[Br-] [BCB, Butyrylcholinbromid]",optimaler Dosisbereich,[1]; [12],5-10 mM (2.5 mM)
same,% Steigerung der t-PA-Synthese Durchschnitt,[1]; [13],"29,1 ± 4,4%"
same,% Steigerung der t-PA-Synthese Maximum,[1]; [14],"49,6%"
O=C(O)C(O)C(O)C(=O)O (stereo not drawn) [Weinsäure],activation at 10000 µM,[2]; read-out: Steigerung der t-PA-Synthese gegenüber der Kontrolle,10.3%
CC(C)C(=O)O [Isobuttersäure],% Steigerung der t-PA-Synthese Durchschnitt,[1]; [7],"16.6 ± 2,8%"
same,% Steigerung der t-PA-Synthese Maximum,[1]; [8],"32,9%"
same,optimaler Dosisbereich,[1]; [9],"0,6-10 mM (10 mM)"
same,Steigerung der t-PA-Produktion,[1]; [10],"20,1 ± 10,7%"
same,Steigerung der t-PA-Produktion,[1]; [11],"25,3 ± 5,1%"
same,Produktionssteigerung erst nach,"[1]; onset of the increase, medium with 7,5% FKS (Abb. 7)",48 h
CCCCCc1oc(CCCCCCCCC(=O)O)c(C)c1C [Furanfettsäure],% Steigerung der t-Pa-Synthese Durchschnitt,[1]; [15],"19,0 ± 3,2%"
same,% Steigerung der t-Pa-Synthese Maximum,[1]; [16],"32,1%"
"CC(=O)C=C(C)CC(C)(C)O [DHO, 6-Hydroxy-4,6-Dimethyl-3-hepten-2-on]",t-PA Produktion nach der Behandlung,[3]; after 144 h,erhöht
N[C@@H](CS)C(=O)O [L-Cystein],optimaler Dosisbereich,[1]; [4],1-10 mM ( 1mM)
same,% Steigerung der t-Pa-Synthese Durchschnitt,[1]; [5],"20,9 ± 3,4%"
same,% Steigerung der t-Pa-Synthese Maximum,[1]; [6],"41,4%"
same,Maximalwert des Steigerungseffektes erreicht nach,[1]; time to maximal effect (Abb. 15),48 h
CC(O)CC1CCC(C(C)C(=O)O)O1 (stereo not drawn) [Nonactinsäure],% Steigerung der t-Pa-Synthese Durchschnitt,[1]; [15],"30,3 ± 6,5%"
same,% Steigerung der t-Pa-Synthese Maximum,[1]; [16],"58,3%"
O=C(O)CSCC(=O)O [Thiodiglykolsäure],% Steigerung der t-Pa-Synthese Durchschnitt,[1],"18,0 ± 3,8%"
same,% Steigerung der t-Pa-Synthese Maximum,[1],"31,0%"
same,optimaler Dosisbereich,[1],1 mM
CCCC(=O)O [Buttersäure],"t-PA-Synthese, bezogen auf 1 x 10⁶ Zellen",[3]; serum-free medium (Abb. 13),> 50 µg/ 1 x 10⁶ Zellen
same,% Steigerung der t-PA-Synthese Durchschnitt,[1]; [7],"41,9 ± 3,8%"
same,% Steigerung der t-PA-Synthese Maximum,[1]; [8],"68,3%"
same,optimaler Dosisbereich,[1]; [9],1-5 mM ( 1 mM)
same,Steigerung der t-PA-Produktion,[1]; [10],"33,0 ± 5,4%"
same,Steigerung der t-PA-Produktion,[1]; [11],"40,2 ± 12,2%"
same,Stimulierung der t-PA-Produktion,"[1]; medium with 7,5% FKS (Abb. 7)","18,1 ± 5,7%"
"CCCC(=O)OCC[N+](C)(C)C.[Cl-] [BCC, Butyrylcholinchlorid]",optimaler Dosisbereich,[1]; [12],5-10 mM ( 10 mM)
same,% Steigerung der t-PA-Synthese Durchschnitt,[1]; [13],"38,8 ± 4,4%"
same,% Steigerung der t-PA-Synthese Maximum,[1]; [14],"63,9%"
"O=CO [Ameisensäure, reference compound]",% Steigerung der t-PA-Synthese Durchschnitt,[1]; [7],"6,5 ± 0,9%"
same,% Steigerung der t-PA-Synthese Maximum,[1]; [8],"7,4%"
same,optimaler Dosisbereich,"[1]; Table 3, stimulation of t-PA synthesis, medium with 7,5% FKS",0.1 mM
O=C1O[C@H]([C@@H](O)CO)C(O)=C1O [Ascorbinsäure],Wirkung auf die t-PA-Produktion hält an,[2]; duration of effect,72 h
same,activation at 10000 µM,"[2]; application day 0, after 24 h (Abb. 14), read-out: Steigerung der t-PA-Synthese",15.2%
